The results in this text go back to ChEMBL document CHEMBL2440114, “Methanolysis of triterpenoid saponin from Ardisia gigantifolia stapf. and structure-activity relationship study against cancer cells” (Bioorg Med Chem Lett, 2013).

The subject of assay [1] is Bel-7402. Kind of assay: Antiproliferative activity against human Bel7402 cells by MTT assay. The format is functional, cell-based. For orientation: Formazan colour is commonly taken as a measure of viable cells.
In the next assay the test system is A549. Kind of assay: Antiproliferative activity against human A549 cells by MTT assay. The format is functional, cell-based.
The subject of another assay is HCT-8. In words: Antiproliferative activity against human HCT8 cells by MTT assay. The assay is classed as functional, cell-based.
A further assay deals with HepG2. In words: Cytotoxicity against human HepG2 cells. The assay is classed as functional, cell-based.
The test system of the next assay is HeLa. In words: Cytotoxicity against human HeLa cells. The format is functional, cell-based.
A short description of assay [2]: Cytotoxicity against human […] cells. The format is functional, cell-based.
In the next assay the test system is EJ. Kind of assay: Cytotoxicity against human EJ cells. The format is functional, cell-based.
Assay [3] deals with Bel-7402. In words: Cell cycle arrest in human Bel7402 cells assessed as accumulation in G2/M phase (reference value: 43.75+/- 1.1 %). The format is functional.
Assay [4] relates to Bel-7402. In words: Antiproliferative activity against human Bel7402 cells at 0.5 to 20 uM by MTT assay. The format is functional, cell-based. To be noted: TDE = time-dependent effect.
The subject of assay [5] is Bel-7402. Kind of assay: Cell cycle arrest in human Bel7402 cells assessed as accumulation in G1 phase (reference value: 37.6+/- 1.4 %). The assay is classed as functional.
Assay [6] has as its system Bel-7402. In words: Antiproliferative activity against human Bel7402 cells after 12 to 72 hrs by MTT assay. The format is functional, cell-based.

Usually IC50 stands for the concentration that inhibits the measured activity by half. High values mean weaker potency in that assay, low ones greater potency in that assay. Consider `CC(=O)OC[C@H]1O[C@@H](O[C@H]2[C@H](O[C@H]3CC[C@]4(C)[C@H]5CC[C@]67OC[C@@]8(CC[C@](C)(C=O)C[C@H]86)[C@H](O)C[C@@]7(C)[C@]5(C)CC[C@H]4C3(C)C)OC[C@H](O[C@@H]3O[C@H](CO)[C@@H](O)[C@H](O[C@@H]4O[C@@H](C)[C@H](O)[C@@H](O)[C@H]4O)[C@H]3O[C@@H]3OC[C@@H](O)[C@H](O)[C@H]3O)[C@@H]2O)[C@H](O)[C@@H](O)[C@@H]1O`, for which the IC50 in the assay on Bel-7402 [1] was 7.76 µM; in the assay on A549 it was 7.52 µM; in the assay with HCT-8, 4.1 µM.
As for `CC(=O)OC[C@H]1O[C@@H](O[C@H]2[C@H](O[C@H]3CC[C@]4(C)[C@H]5CC[C@]67OC[C@@]8(CCC(C)(C)C[C@H]86)[C@H](O)C[C@@]7(C)[C@]5(C)CC[C@H]4C3(C)C)OC[C@H](O[C@@H]3O[C@H](CO)[C@@H](O)[C@H](O[C@@H]4O[C@@H](C)[C@H](O)[C@@H](O)[C@H]4O)[C@H]3O[C@@H]3OC[C@@H](O)[C@H](O)[C@H]3O)[C@@H]2O)[C@H](O)[C@@H](O)[C@@H]1O`, the IC50 with Bel-7402 [1] was found to be 8.4 µM; in the assay with A549, 8.06 µM; with HCT-8, 9.28 µM.
On to `CC(=O)OC[C@@]1(C)CC[C@]23CO[C@@]4(CC[C@@H]5[C@@]6(C)CC[C@H](O[C@@H]7OC[C@H](O[C@@H]8O[C@H](CO)[C@@H](O)[C@H](O[C@@H]9O[C@@H](C)[C@H](O)[C@@H](O)[C@H]9O)[C@H]8O[C@@H]8OC[C@@H](O)[C@H](O[C@@H]9O[C@H](CO)[C@@H](O)[C@H](O)[C@H]9O)[C@H]8O)[C@H](O)[C@H]7O[C@@H]7O[C@H](CO)[C@@H](O)[C@H](O)[C@H]7O)C(C)(C)[C@@H]6CC[C@@]5(C)[C@]4(C)C[C@H]2O)[C@@H]3C1`, for which the IC50 amounted to 2.71 µM in the assay with Bel-7402 [1], 6.33 µM with A549 and 5.73 µM with HCT-8.
For the compound `C[C@@H]1O[C@@H](O[C@H]2[C@H](O)[C@@H](CO)O[C@@H](O[C@H]3CO[C@@H](O[C@H]4CC[C@]5(C)[C@H]6CC[C@]78OC[C@@]9(CC[C@](C)(C=O)C[C@H]97)[C@H](O)C[C@@]8(C)[C@]6(C)CC[C@H]5C4(C)C)[C@H](O[C@@H]4O[C@H](CO)[C@@H](O)[C@H](O)[C@H]4O)[C@H]3O)[C@@H]2O[C@@H]2OC[C@@H](O)[C@H](O[C@@H]3O[C@H](CO)[C@@H](O)[C@H](O)[C@H]3O)[C@H]2O)[C@H](O)[C@H](O)[C@H]1O`, the results for the IC50 with Bel-7402 [1], in the assay on A549 and with HCT-8 were 3.2 µM, 3.2 µM and 2 µM, respectively.
For `CC1(C)[C@@H](O[C@@H]2OC[C@H](O[C@@H]3O[C@H](CO)[C@@H](O)[C@H](O)[C@H]3O[C@@H]3OC[C@@H](O)[C@H](O)[C@H]3O)[C@H](O)[C@H]2O)CC[C@]2(C)[C@H]3CC[C@]45OC[C@@]6(CC[C@](C)(C=O)C[C@H]64)[C@H](O)C[C@@]5(C)[C@]3(C)CC[C@@H]12` [PRIMULANIN], the IC50 worked out at 10.3 µM in the assay with Bel-7402 [1], 12 µM in the assay on A549 and 8.43 µM in the assay with HCT-8.
Regarding `CCCCO[C@@H]1OC[C@]23CC[C@@]1(C)C[C@H]2C1=CC[C@@H]2[C@@]4(C)CC[C@H](O[C@@H]5OC[C@H](O[C@@H]6O[C@H](CO)[C@@H](O)[C@H](O)[C@H]6O)[C@H](O)[C@H]5O[C@@H]5O[C@H](CO)[C@@H](O)[C@H](O)[C@H]5O)C(C)(C)[C@@H]4CC[C@@]2(C)[C@]1(C)C[C@H]3O`, the IC50 with Bel-7402 [1] was 7.34 µM; with A549 it was 10.6 µM; with HCT-8, above 100 µM.
Consider `O=c1[nH]cc(F)c(=O)[nH]1` [FLUOROURACIL], for which the values for the concentration for half-maximal inhibition (IC50) with Bel-7402 [1] and with HCT-8 were 8.3 µM and 6.92 µM, respectively.
In the case of `CC(=O)OC[C@@]1(C)CC[C@]23CO[C@@]4(CC[C@@H]5[C@@]6(C)CC[C@H](O[C@@H]7OC[C@H](O[C@@H]8O[C@H](CO)[C@@H](O)[C@H](O[C@@H]9O[C@@H](C)[C@H](O)[C@@H](O)[C@H]9O)[C@H]8O[C@@H]8OC[C@@H](O)[C@H](O)[C@H]8O)[C@H](O)[C@H]7O[C@@H]7O[C@H](CO)[C@@H](O)[C@H](O)[C@H]7O)C(C)(C)[C@@H]6CC[C@@]5(C)[C@]4(C)C[C@H]2O)[C@@H]3C1`, the IC50 in the assay with Bel-7402 [1] was above 100 µM; in the assay on A549 it was 59.7 µM; in the assay with HCT-8 it was above 100 µM.
Take `C[C@@H]1O[C@@H](O[C@H]2[C@H](O)[C@@H](CO)O[C@@H](O[C@H]3CO[C@@H](O[C@H]4CC[C@]5(C)[C@H]6CC[C@]78OC[C@@]9(CC[C@](C)(C=O)C[C@H]97)[C@H](O)C[C@@]8(C)[C@]6(C)CC[C@H]5C4(C)C)[C@H](O[C@@H]4O[C@H](CO)[C@@H](O)[C@H](O)[C@H]4O)[C@H]3O)[C@@H]2O[C@@H]2OC[C@@H](O)[C@H](O)[C@H]2O)[C@H](O)[C@H](O)[C@H]1O`: the IC50 in the assay with Bel-7402 [1] is 1.58 µM; with A549 it was above 100 µM; in the assay on HCT-8 it was above 100 µM; in the assay with HepG2, 1.9 µM; with HeLa it was 1.8 µM; in [2] it was 2.1 µM. For the same compound, the IC50 with EJ worked out at 2 µM.
With `C[C@@H]1O[C@@H](O[C@H]2[C@H](O)[C@@H](CO)O[C@@H](O[C@H]3CO[C@@H](O[C@H]4CC[C@]5(C)[C@H]6CC[C@]78OC[C@@]9(CC[C@](C)(CO)C[C@H]97)[C@H](O)C[C@@]8(C)[C@]6(C)CC[C@H]5C4(C)C)[C@H](O[C@@H]4O[C@H](CO)[C@@H](O)[C@H](O)[C@H]4O)[C@H]3O)[C@@H]2O[C@@H]2OC[C@@H](O)[C@H](O)[C@H]2O)[C@H](O)[C@H](O)[C@H]1O`, the IC50 in the assay on Bel-7402 [1] was above 100 µM; with A549, 31 µM; in the assay on HCT-8 it was 8.63 µM.
`CCCCO[C@H]1OC[C@]23CC[C@@]1(C)C[C@H]2C1=CC[C@@H]2[C@@]4(C)CC[C@H](O[C@@H]5OC[C@H](O[C@@H]6O[C@H](CO)[C@@H](O)[C@H](O)[C@H]6O)[C@H](O)[C@H]5O[C@@H]5O[C@H](CO)[C@@H](O)[C@H](O)[C@H]5O)C(C)(C)[C@@H]4CC[C@@]2(C)[C@]1(C)C[C@H]3O`: the half-maximal inhibitory concentration (IC50) in the assay with Bel-7402 [1], in the assay with A549 and in the assay on HCT-8 was above 100 µM each time.
Regarding `C[C@@H]1O[C@@H](O[C@H]2[C@H](O)[C@@H](CO)O[C@@H](O[C@H]3CO[C@@H](O[C@H]4CC[C@]5(C)[C@H]6CC[C@]78OC[C@@]9(CC[C@](C)(C=O)C[C@H]97)C(=O)C[C@@]8(C)[C@]6(C)CC[C@H]5C4(C)C)[C@H](O)[C@H]3O)[C@@H]2O[C@@H]2OC[C@@H](O)[C@H](O)[C@H]2O)[C@H](O)[C@H](O)[C@H]1O`, the IC50 in the assay on Bel-7402 [1] was found to be 6.9 µM; in the assay with A549, 10 µM; in the assay with HCT-8 it was 7.73 µM.
In the case of `C[C@@H]1O[C@@H](O[C@H]2[C@H](O)[C@@H](CO)O[C@@H](O[C@H]3CO[C@@H](O[C@H]4CC[C@]5(C)[C@H]6CC[C@]78OC[C@@]9(CCC(C)(C)C[C@H]97)[C@H](O)C[C@@]8(C)[C@]6(C)CC[C@H]5C4(C)C)[C@H](O[C@@H]4O[C@H](CO)[C@@H](O)[C@H](O)[C@H]4O)[C@H]3O)[C@@H]2O[C@@H]2OC[C@@H](O)[C@H](O[C@@H]3O[C@H](CO)[C@@H](O)[C@H](O)[C@H]3O)[C@H]2O)[C@H](O)[C@H](O)[C@H]1O`, the IC50 is 7.83 µM in the assay on Bel-7402 [1], 8.15 µM in the assay on A549 and 10.1 µM in the assay on HCT-8. The Activity is 59.94% in the assay on Bel-7402 [3], “tde” in the assay on Bel-7402 [4], 40.86% with Bel-7402 [5] and “Dose-dependent effect” in the assay on Bel-7402 [6].
As to `C[C@@H]1O[C@@H](O[C@H]2[C@H](O)[C@@H](CO)O[C@@H](O[C@H]3CO[C@@H](O[C@H]4CC[C@]5(C)[C@H]6CC[C@]78OC[C@@]9(CC[C@](C)(CO)C[C@H]97)C(=O)C[C@@]8(C)[C@]6(C)CC[C@H]5C4(C)C)[C@H](O[C@@H]4O[C@H](CO)[C@@H](O)[C@H](O)[C@H]4O)[C@H]3O)[C@@H]2O[C@@H]2OC[C@@H](O)[C@H](O)[C@H]2O)[C@H](O)[C@H](O)[C@H]1O`, the IC50 came to 3.6 µM in the assay on Bel-7402 [1], 3.77 µM with A549 and 3.41 µM in the assay on HCT-8.
The matching figures for `CC1(C)CC[C@]23CO[C@@]4(CC[C@@H]5[C@@]6(C)CC[C@H](O[C@@H]7OC[C@H](O[C@@H]8O[C@H](CO)[C@@H](O)[C@H](O)[C@H]8O[C@@H]8OC[C@@H](O)[C@H](O)[C@H]8O)[C@H](O)[C@H]7O[C@@H]7O[C@H](CO)[C@@H](O)[C@H](O)[C@H]7O)C(C)(C)[C@@H]6CC[C@@]5(C)[C@]4(C)C[C@H]2O)[C@@H]3C1` [LYSIKOKIANOSIDE 1]: 6.77 µM, 4.37 µM and 10.1 µM.
Consider `CCCCO[C@@H]1OC[C@]23CC[C@@]1(C)C[C@H]2C1=CC[C@@H]2[C@@]4(C)CC[C@H](O)C(C)(C)[C@@H]4CC[C@@]2(C)[C@]1(C)C[C@H]3O`, for which the IC50 was 11.6 µM in the assay with Bel-7402 [1], above 100 µM with A549 and above 100 µM with HCT-8.
Regarding `CCCCO[C@H]1OC[C@]23CC[C@@]1(C)C[C@H]2C1=CC[C@@H]2[C@@]4(C)CC[C@H](O)C(C)(C)[C@@H]4CC[C@@]2(C)[C@]1(C)C[C@H]3O`, the IC50 in the assay with Bel-7402 [1] is 53.1 µM; in the assay with A549, 44.3 µM; in the assay with HCT-8, above 100 µM.
